Measurements as given in patent US6423689B1, “Peptidyl calcium channel blockers” (Warner-Lambert Company, priority 1997, dated 2002).

These compounds were tested against T1, N-type Ca2+ channels in IMR-32 cells (Homo sapiens, UniProt Q00975) (assay: Inhibition of N-type calcium flux in IMR-32 cells (Indo-1 fluorescence, nitrendipine present)). Conditions: 1 μM.
T1 construct: host or cells: IMR-32 cells, differentiated with dibutyryl cAMP and bromodeoxyuridine
Type: cell-based
Outline: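 Differentiated IMR-32 cells (7–13 days) were loaded with 5 μM Indo-1 AM, preincubated with compound for 10 min at 30° C, and depolarized with KCl/CaCl2 stimulation solution, with 5 μM nitrendipine blocking L-channels. Peak-minus-basal 400/490 nm emission ratio was plotted against drug concentration, and IC50 came from four-parameter logistic fits.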

T1 sequence (Q00975 whole entry): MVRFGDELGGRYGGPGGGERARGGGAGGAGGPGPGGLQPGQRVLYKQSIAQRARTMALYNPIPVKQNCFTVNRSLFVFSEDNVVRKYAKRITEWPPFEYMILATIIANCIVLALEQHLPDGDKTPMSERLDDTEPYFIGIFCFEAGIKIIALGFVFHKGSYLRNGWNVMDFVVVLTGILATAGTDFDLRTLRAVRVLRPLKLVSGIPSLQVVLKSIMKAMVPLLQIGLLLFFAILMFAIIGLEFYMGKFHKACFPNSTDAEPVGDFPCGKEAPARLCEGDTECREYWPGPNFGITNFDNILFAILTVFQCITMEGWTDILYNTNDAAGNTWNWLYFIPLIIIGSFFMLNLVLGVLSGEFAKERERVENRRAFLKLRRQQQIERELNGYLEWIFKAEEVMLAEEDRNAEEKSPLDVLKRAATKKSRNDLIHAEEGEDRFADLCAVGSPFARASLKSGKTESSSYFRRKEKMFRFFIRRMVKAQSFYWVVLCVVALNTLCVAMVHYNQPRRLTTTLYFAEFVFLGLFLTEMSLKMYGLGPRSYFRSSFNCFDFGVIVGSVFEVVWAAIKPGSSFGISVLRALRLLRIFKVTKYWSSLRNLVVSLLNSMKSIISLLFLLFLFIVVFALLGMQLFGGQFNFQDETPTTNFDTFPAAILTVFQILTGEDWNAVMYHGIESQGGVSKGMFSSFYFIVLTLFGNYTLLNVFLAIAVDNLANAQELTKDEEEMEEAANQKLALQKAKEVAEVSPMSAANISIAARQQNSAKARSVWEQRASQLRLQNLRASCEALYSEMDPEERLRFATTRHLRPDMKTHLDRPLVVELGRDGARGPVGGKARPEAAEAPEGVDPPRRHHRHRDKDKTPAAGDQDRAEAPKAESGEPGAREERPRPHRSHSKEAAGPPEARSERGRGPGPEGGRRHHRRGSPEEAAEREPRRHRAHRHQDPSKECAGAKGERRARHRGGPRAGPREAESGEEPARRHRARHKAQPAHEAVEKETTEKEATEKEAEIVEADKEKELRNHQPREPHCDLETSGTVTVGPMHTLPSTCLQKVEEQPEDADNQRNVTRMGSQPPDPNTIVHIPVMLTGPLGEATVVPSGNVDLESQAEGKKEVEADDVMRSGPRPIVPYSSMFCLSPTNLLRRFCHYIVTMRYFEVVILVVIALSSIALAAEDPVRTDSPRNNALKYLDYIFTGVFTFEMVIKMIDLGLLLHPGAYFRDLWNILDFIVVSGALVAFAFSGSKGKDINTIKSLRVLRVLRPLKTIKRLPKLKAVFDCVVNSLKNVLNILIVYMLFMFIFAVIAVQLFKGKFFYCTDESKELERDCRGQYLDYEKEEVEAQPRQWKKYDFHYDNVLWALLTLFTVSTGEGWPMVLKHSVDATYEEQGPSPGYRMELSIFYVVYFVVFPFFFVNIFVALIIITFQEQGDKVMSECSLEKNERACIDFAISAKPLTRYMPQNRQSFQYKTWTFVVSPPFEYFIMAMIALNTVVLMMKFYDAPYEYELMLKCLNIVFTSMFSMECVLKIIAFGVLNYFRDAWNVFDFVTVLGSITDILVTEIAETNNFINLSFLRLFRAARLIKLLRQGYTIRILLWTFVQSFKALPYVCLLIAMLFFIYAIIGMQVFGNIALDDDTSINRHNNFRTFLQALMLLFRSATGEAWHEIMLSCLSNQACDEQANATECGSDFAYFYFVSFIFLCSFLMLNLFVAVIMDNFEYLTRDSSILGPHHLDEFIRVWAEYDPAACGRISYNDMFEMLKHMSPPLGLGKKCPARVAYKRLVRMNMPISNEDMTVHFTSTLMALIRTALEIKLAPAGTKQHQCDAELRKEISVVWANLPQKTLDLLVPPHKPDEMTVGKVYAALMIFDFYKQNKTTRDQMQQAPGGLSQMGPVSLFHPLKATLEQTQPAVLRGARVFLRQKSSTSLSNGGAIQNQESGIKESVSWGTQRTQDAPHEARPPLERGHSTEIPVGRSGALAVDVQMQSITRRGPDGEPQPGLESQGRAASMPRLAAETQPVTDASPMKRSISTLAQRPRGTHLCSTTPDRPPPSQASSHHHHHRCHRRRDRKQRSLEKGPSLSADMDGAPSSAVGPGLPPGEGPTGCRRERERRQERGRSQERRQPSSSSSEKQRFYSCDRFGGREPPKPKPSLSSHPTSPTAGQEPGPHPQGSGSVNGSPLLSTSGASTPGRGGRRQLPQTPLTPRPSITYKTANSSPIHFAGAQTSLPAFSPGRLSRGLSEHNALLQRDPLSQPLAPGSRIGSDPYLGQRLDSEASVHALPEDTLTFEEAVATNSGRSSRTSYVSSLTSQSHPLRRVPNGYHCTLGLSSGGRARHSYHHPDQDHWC
T1 sequence (P54289 25-956 partner limits assumed): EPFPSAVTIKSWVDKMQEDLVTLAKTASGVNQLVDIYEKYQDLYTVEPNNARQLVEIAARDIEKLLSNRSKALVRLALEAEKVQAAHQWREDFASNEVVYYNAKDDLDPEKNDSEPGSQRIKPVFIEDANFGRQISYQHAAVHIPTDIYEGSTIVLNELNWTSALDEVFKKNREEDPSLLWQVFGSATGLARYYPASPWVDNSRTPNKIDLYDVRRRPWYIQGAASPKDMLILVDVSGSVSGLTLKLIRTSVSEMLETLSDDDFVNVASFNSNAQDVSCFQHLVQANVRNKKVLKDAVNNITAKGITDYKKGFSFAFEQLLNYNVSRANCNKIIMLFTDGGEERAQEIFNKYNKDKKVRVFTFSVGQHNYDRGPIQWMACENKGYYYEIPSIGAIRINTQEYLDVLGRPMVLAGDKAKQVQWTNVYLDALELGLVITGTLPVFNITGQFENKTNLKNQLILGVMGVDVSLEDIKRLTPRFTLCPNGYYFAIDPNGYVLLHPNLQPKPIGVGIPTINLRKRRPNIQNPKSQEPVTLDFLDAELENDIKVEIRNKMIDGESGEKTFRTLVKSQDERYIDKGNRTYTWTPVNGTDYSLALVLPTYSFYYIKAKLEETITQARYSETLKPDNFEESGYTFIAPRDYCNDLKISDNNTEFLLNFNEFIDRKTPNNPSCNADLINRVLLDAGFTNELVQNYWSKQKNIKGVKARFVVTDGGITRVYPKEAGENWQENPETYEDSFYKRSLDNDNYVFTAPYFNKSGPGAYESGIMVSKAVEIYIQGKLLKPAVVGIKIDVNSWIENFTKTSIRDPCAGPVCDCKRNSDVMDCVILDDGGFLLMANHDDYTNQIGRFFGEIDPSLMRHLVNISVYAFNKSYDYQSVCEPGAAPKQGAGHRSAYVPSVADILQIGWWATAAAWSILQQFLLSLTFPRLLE
T1 sequence (P54289 957-1103 partner limits assumed): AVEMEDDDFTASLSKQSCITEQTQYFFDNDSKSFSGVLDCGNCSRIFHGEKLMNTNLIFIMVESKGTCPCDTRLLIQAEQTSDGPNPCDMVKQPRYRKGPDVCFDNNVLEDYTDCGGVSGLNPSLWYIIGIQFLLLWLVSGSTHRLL
T1 sequence (P54284 whole entry partner): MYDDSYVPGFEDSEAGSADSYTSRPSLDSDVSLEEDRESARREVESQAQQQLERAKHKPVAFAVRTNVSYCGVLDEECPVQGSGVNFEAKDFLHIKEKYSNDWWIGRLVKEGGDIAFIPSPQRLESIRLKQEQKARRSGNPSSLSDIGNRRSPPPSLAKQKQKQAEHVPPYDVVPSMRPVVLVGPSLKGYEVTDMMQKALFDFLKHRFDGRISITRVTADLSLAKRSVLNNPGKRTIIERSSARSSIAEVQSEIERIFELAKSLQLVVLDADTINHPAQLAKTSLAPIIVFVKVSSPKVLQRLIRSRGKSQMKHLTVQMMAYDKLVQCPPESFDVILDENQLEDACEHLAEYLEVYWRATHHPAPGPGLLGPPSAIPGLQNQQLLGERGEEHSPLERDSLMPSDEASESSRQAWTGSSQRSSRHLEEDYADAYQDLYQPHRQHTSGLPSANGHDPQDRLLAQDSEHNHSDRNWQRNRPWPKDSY

Row | Inhibition of Calcium Flux in IMR-32 Cells % Inhibition at 1 μM [%] | SMILES
1 | 17 | CC(C)C[C@H](NC(=O)c1ccc(C(C)(C)C)cc1)C(=O)N[C@@H](Cc1ccc(OCc2ccccc2)cc1)C(=O)OC(C)(C)C (relative stereo) [Example 93, [S-(R*,R*)]-3-(4-Benzyloxy-phenyl)-2-[2-(4-tert-butyl-benzoylamino)-4-methyl-pentanoylamino]-propionic acid tert-butyl ester]
2 | 29 | CC(C)C[C@H](NC(=O)c1ccc(F)cc1)C(=O)N[C@@H](Cc1ccc(OCc2ccccc2)cc1)C(=O)OC(C)(C)C (relative stereo) [Example 94, [S-(R*,R*)]-3-(4-Benzyloxy-phenyl)-2-[2-(4-fluoro-benzoylamino)-4-methyl-pentanoylamino]-propionic acid tert-butyl ester]
3 | 27 | COc1ccc(C(=O)N[C@@H](CC(C)C)C(=O)N[C@@H](Cc2ccc(OCc3ccccc3)cc2)C(=O)OC(C)(C)C)cc1 (relative stereo) [Example 95, [S-(R*,R*)]-3-(4-Benzyloxy-phenyl)-2-[2-(4-methoxy-benzoylamino)-4-methyl-pentanoylamino]-propionic acid tert-butyl ester]
4 | 33 | COc1cccc(C(=O)N[C@@H](CC(C)C)C(=O)N[C@@H](Cc2ccc(OCc3ccccc3)cc2)C(=O)OC(C)(C)C)c1 (relative stereo) [Example 96, [S-(R*,R*)]-3-(4-Benzyloxy-phenyl)-2-[2-(3-methoxy-benzoylamino)-4-methyl-pentanoylamino]-propionic acid tert-butyl ester]
5 | 30 | CC(C)C[C@H](NC(=O)c1ccc2c(c1)OCO2)C(=O)N[C@@H](Cc1ccc(OCc2ccccc2)cc1)C(=O)OC(C)(C)C (relative stereo) [Example 97, [S-(R*,R*)]-2-{2-[(Benzo[1,3]dioxole-5-carbonyl)-amino]-4-methyl-pentanoylamino}-3-(4-benzyloxy-phenyl)-propionic acid tert-butyl ester]
6 | 34 | COc1ccccc1C(=O)N[C@@H](CC(C)C)C(=O)N[C@@H](Cc1ccc(OCc2ccccc2)cc1)C(=O)OC(C)(C)C (relative stereo) [Example 98, [S-(R*,R*)]-3-(4-Benzyloxy-phenyl)-2-[2-(2-methoxy-benzoylamino)-4-methyl-pentanoylamino]-propionic acid tert-butyl ester]
7 | 19 | CC(C)C[C@H](NC(=O)c1ccc2ccccc2c1)C(=O)N[C@@H](Cc1ccc(OCc2ccccc2)cc1)C(=O)OC(C)(C)C (relative stereo) [Example 99, [S-(R*,R*)]-3-(4-Benzyloxy-phenyl)-2-{4-methyl-2-[(naphthalene-2-carbonyl)-amino]pentanoylamino}-propionic acid tert-butyl ester]
8 | 18 | COc1ccc(C(=O)N[C@@H](CC(C)C)C(=O)N[C@@H](Cc2ccc(OCc3ccccc3)cc2)C(=O)OC(C)(C)C)cc1OC (relative stereo) [Example 100, [S-(R*,R*)]-3-(4-Benzyloxy-phenyl)-2-[2-(3,4-dimethoxy-benzoylamino)-4-methyl-pentanoylamino]-propionic acid tert-butyl ester]
9 | 28 | COc1ccc(S(=O)(=O)N[C@@H](CC(C)C)C(=O)N[C@@H](Cc2ccc(OCc3ccccc3)cc2)C(=O)OC(C)(C)C)cc1 (relative stereo) [Example 103, [S-(R*,R*)]-3-(4-Benzyloxy-phenyl)-2-[2-(4-methoxy-benzenesulfonylamino)-4-methyl-pentanoylamino]-propionic acid tert-butyl ester]
10 | 35 | CC(C)C[C@H](NS(=O)(=O)c1ccc(F)cc1)C(=O)N[C@@H](Cc1ccc(OCc2ccccc2)cc1)C(=O)OC(C)(C)C (relative stereo) [Example 104, [S-(R*,R*)]-3-(4-Benzyloxy-phenyl)-2-[2-(4-fluoro-benzenesulfonylamino)-4-methyl-pentanoylamino]-propionic acid tert-butyl ester]
11 | 32 | CC(C)C[C@H](NS(=O)(=O)c1cc(Cl)cc(Cl)c1)C(=O)N[C@@H](Cc1ccc(OCc2ccccc2)cc1)C(=O)OC(C)(C)C (relative stereo) [Example 106, [S-(R*,R*)]-3-(4-Benzyloxy-phenyl)-2-[2-(3,5-dichloro-benzenesulfonylamino)-4-methylpentanoylamino]-propionic acid tert-butyl ester]

Row | SMILES | Inhibition of Calcium Flux in IMR-32 Cells % Inhibition at 1 μM [%]
12 | Cc1ccccc1S(=O)(=O)N[C@@H](CC(C)C)C(=O)N[C@@H](Cc1ccc(OCc2ccccc2)cc1)C(=O)OC(C)(C)C (relative stereo) [Example 105, [S-(R*,R*)]-3-(4-Benzyloxy-phenyl)-2-[4-methyl-2-(toluene-2-sulfonylamino)-pentanoylamino]-propionic acid tert-butyl ester] | 29

Same assay, conditions: 10 μM

Row | Inhibition of Calcium Flux in IMR-32 Cells % Inhibition at 10 μM [%] | SMILES
13 | 75 | CC(C)C[C@H](NS(=O)(=O)c1cccc2nsnc12)C(=O)C[C@H](Cc1ccc(OCc2ccccc2)cc1)C(=O)OC(C)(C)C (relative stereo) [Example 102, [S-(R*,R*)]-5-(Benzo[1,2,5]thiadiazole-4-sulfonylamino)-2-(4-benzyloxybenzyl)-7-methyl-4-oxo-octanoic acid tert-butyl ester]
14 | 57 | CC(C)C[C@H](NS(=O)(=O)c1cccs1)C(=O)N[C@@H](Cc1ccc(OCc2ccccc2)cc1)C(=O)OC(C)(C)C (relative stereo) [Example 107, [S-(R*,R*)]-3-(4-Benzyloxy-phenyl)-2-[4-methyl-2-(thiophene-2-sulfonylamino)-pentanoylamino]-propionic acid tert-butyl ester]
15 | 76 | Cc1nn(C)c(Cl)c1S(=O)(=O)N[C@@H](CC(C)C)C(=O)N[C@@H](Cc1ccc(OCc2ccccc2)cc1)C(=O)OC(C)(C)C (relative stereo) [Example 110, [S-(R*,R*)]-3-(4-Benzyloxy-phenyl)-2-[2-(5-chloro-1,3-dimethyl-1H-pyrazole-4-sulfonylamino)-4-methyl-pentanoylamino]-propionic acid tert-butyl ester]
16 | 83 | CC(C)C[C@H](NC(=O)Cc1c[nH]c2ccccc12)C(=O)C[C@H](Cc1ccc(OCc2ccccc2)cc1)C(=O)OC(C)(C)C (relative stereo) [Example 113, [S-(R*,R*)]-2-(4-Benzyloxy-benzyl)-5-(2-1H-indol-3-yl-acetylamino)-7-methyl-4-oxo-octanoic acid tert-butyl ester]
17 | 66 | CCCCCCC(=O)N[C@@H](CC(C)C)C(=O)N[C@@H](Cc1ccc(OCc2ccccc2)cc1)C(=O)OC(C)(C)C (relative stereo) [Example 114, [S-(R*,R*)]-3-(4-Benzyloxy-phenyl)-2-(2-heptanoylamino-4-methyl-pentanoylamino)-propionic acid tert-butyl ester]
18 | 71 | CC(C)C[C@H](NC(=O)C(C)C)C(=O)N[C@@H](Cc1ccc(OCc2ccccc2)cc1)C(=O)OC(C)(C)C (relative stereo) [Example 115, [S-(R*,R*)]-3-(4-Benzyloxy-phenyl)-2-(2-isobutyrylamino-4-methyl-pentanoylamino)-propionic acid tert-butyl ester]
19 | 53 | CC(=O)N[C@@H](CC(C)C)C(=O)N[C@@H](Cc1ccc(OCc2ccccc2)cc1)C(=O)OC(C)(C)C (relative stereo) [Example 116, [S-(R*,R*)]-2-(2-Acetylamino-4-methyl-pentanoylamino)-3-(4-benzyloxy-phenyl)-propionic acid tert-butyl ester]
20 | 66 | CCC(=O)N[C@@H](CC(C)C)C(=O)N[C@@H](Cc1ccc(OCc2ccccc2)cc1)C(=O)OC(C)(C)C (relative stereo) [Example 117, [S-(R*,R*)]-3-(4-Benzyloxy-phenyl)-2-(4-methyl-2-propionylamino-pentanoylamino)-propionic acid tert-butyl ester]
21 | 80 | CCCC(=O)N[C@@H](CC(C)C)C(=O)N[C@@H](Cc1ccc(OCc2ccccc2)cc1)C(=O)OC(C)(C)C (relative stereo) [Example 118, [S-(R*,R*)]-3-(4-Benzyloxy-phenyl)-2-(2-butyrylamino-4-methyl-pentanoylamino)-propionic acid tert-butyl ester]
22 | 65 | CC(C)C[C@H](NC(=O)Cc1cccnc1)C(=O)N[C@@H](Cc1ccc(OCc2ccccc2)cc1)C(=O)OC(C)(C)C (relative stereo) [Example 119, [S-(R*,R*)]-3-(4-Benzyloxy-phenyl)-2-[4-methyl-2-(2-pyridin-3-yl-acetylamino)pentanoylamino]-propionic acid tert-butyl ester]
23 | 65 | CC(C)C[C@H](NC(=O)CCc1c[nH]c2ccccc12)C(=O)N[C@@H](Cc1ccc(OCc2ccccc2)cc1)C(=O)OC(C)(C)C (relative stereo) [Example 120, [S-(R*,R*)]-3-(4-Benzyloxy-phenyl)-2-[2-(3-1H-indol-3-yl-propionylamino)-4-methyl-pentanoylamino]-propionic acid tert-butyl ester]

Row | SMILES | Inhibition of Calcium Flux in IMR-32 Cells % Inhibition at 10 μM [%]
24 | CC(C)C[C@H](NS(=O)(=O)c1ccc2cccnc2c1)C(=O)N[C@@H](Cc1ccc(OCc2ccccc2)cc1)C(=O)OC(C)(C)C (relative stereo) [Example 109, [S-(R*,R*)]-3-(4-Benzyloxy-phenyl)-2-[4-methyl-2-(quinoline-7-sulfonylamino)-pentanoylamino]-propionic acid tert-butyl ester] | 56
